# Source: patent publication US20240300968A1, “6-SUBSTITUTED NAPHTHALENE-1,3-DISULFONIC ACID DERIVATIVES AS MODULATORS OF THE EXTRACELLULAR NICOTINAMIDE PHOSPHORIBOSYL TRANSFERASE (ENAMPT) FOR THE TREATMENT OF E.G. DIABETES” (The University of Manchester, priority 2021, published 2024)
# Where two headings read alike, the source gives them in different places.
# How the values were obtained:
# NAMPT [1] = target: T1, NAMPT (Homo sapiens (Human), UniProt P43490); experiment: Tm shift assay (thermal melting, SYPRO Orange); assay type: binding; conditions: read-out: NAMPT Tm shift
# T1 sequence (P43490 whole entry, species assumed): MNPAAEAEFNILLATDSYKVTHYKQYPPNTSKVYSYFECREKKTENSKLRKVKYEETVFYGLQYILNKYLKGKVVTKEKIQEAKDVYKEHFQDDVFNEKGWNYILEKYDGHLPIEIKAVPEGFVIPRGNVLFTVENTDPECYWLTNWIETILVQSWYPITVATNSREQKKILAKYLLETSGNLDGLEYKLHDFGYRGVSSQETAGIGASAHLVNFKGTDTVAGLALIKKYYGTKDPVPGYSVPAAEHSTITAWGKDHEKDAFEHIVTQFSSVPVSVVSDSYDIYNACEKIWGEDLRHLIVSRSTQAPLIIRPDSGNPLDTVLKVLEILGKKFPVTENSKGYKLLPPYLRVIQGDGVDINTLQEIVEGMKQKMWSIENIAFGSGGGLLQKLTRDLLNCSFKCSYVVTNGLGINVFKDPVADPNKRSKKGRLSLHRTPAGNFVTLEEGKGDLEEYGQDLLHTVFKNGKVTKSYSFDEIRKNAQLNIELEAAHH
# THP-1 cells = experiment: THP-1 WST-1 assay; assay type: cell-based; conditions: Homo sapiens, 1 μM test compound, 48 hrs, average of three replicates
# Method: THP-1 cells were plated at […] (400,000 cells per mL) in a final volume of 150 μL media (RPMI-1640 containing 10% v/v FBS) containing 1 μM test compound. Samples were incubated for 48 hrs at which point 15 μL WST-1 solution (Sigma-Aldrich) was added. Light was excluded and the samples incubated for a further 2 hrs. Absorbance of wells were read at 450 nm and 630 nm using a Hidex Sense plate reader. Metabolic inhibition was determined by the absorbance at 450 nm and transformed to % control using Excel. Data reported is an average of three replicates.
# NAMPT [2] = target: T1, NAMPT; experiment: Native mass spectrometry of NAMPT incubated with compound; assay type: binding; conditions: NAMPT 5 μmol/l with compound 5 μmol/l, 12 hours; m/z 6125-6500 region
# [3] = compound 100 μM, shift vs protein without ligand, mean of 3 independent repeats
SMILES,ΔTm at 100 µM (NAMPT [1]; [3]) [°C],ΔTm at 100 µM (NAMPT [1]) [°C],complex between NAMPT and compound in native mass spectrum (NAMPT [2]),inhibition at 1 µM (THP-1 cells) [%]
O=S(=O)(O)c1cc(S(=O)(=O)O)c2cc(-c3cccc(-c4cn(CCCCCCOc5ccccc5-c5ccccc5)nn4)c3)ccc2c1 [Example 4],,,,< 0
"O=C(NC[C@@H]1CCOC1)c1ccc(NC(=O)N2Cc3ccc(-c4ccc5cc(S(=O)(=O)O)cc(SOOO)c5c4)cc3C2)cc1 [Example 10, (S)-6-(2-((4-(((Tetrahydrofuran-3-yl)methyl)carbamoyl)phenyl)carbamoyl)isoindolin-5-yl)-4-(trioxidaneylthio)naphthalene-2-sulfonic acid]",20.5,,,
"O=C(/C=C/c1ccc(F)c(-c2ccc3cc(S(=O)(=O)O)cc(S(=O)(=O)O)c3c2)c1)NCCCCC1CCN(C(=O)c2ccccc2)CC1 [Example 2, (E)-6-(5-(3-((4-(1-benzoylpiperidin-4-yl)butyl)amino)-3-oxoprop-1-en-1-yl)-2-fluorophenyl)-4-(trioxidaneylthio)naphthalene-2-sulfonic acid]",9.1,,,70.4
"O=C(/C=C/c1cccnc1)NCCCCC1CCN(C(=O)c2ccccc2)CC1 [FK866, (E)-N-[4-(1-benzoylpiperidin-4-yl)butyl]-3-pyridin-3-ylprop-2-enamide, reference compound]",,2.6,complex dissociates,79.6
O=C(NCc1ccc(S(=O)(=O)N2CCCCC2)cc1)c1cc2cc(-c3ccc4cc(S(=O)(=O)O)cc(S(=O)(=O)O)c4c3)ccc2[nH]1 [Example 9],4.2,,,< 0

# Continued, in another order:
ΔTm at 100 µM (NAMPT [1]; [3]) [°C],ΔTm at 100 µM (NAMPT [1]) [°C],complex between NAMPT and compound in native mass spectrum (NAMPT [2]),SMILES,inhibition at 1 µM (THP-1 cells) [%]
10.8,,,O=C(NCc1cccc(-c2ccc3cc(S(=O)(=O)O)cc(S(=O)(=O)O)c3c2)c1)Nc1ccc(S(=O)(=O)N2CCCCC2)cc1 [Example 5],< 0
9.6,,,"O=C(NCc1cc(-c2ccc3cc(S(=O)(=O)O)cc(S(=O)(=O)O)c3c2)ccc1F)Nc1ccc(S(=O)(=O)N2CCCCC2)cc1 [Example 6, 6-(4-fluoro-3-((3-(4-(piperidin-1-ylsulfonyl)phenyl)ureido)methyl)phenyl)-4-(trioxidaneylthio) naphthalene-2-sulfonic acid]",1
9.7,,,"O=C(NCc1ccc(F)c(-c2ccc3cc(S(=O)(=O)O)cc(S(=O)(=O)O)c3c2)c1)Nc1ccc(S(=O)(=O)N2CC3CCC(C2)O3)cc1 [Example 8, 6-(5-((3-(4-((8-oxa-3-azabicyclo[3.2.1]octan-3-yl)sulfonyl)phenyl)ureido)methyl)-2-fluorophenyl)-4-(trioxidaneylthio)naphthalene-2-sulfonic acid]",< 0
10.3,,,"O=C(NCc1ccc(F)c(-c2ccc3cc(S(=O)(=O)O)cc(S(=O)(=O)O)c3c2)c1)Nc1ccc(S(=O)(=O)N2CCCCC2)cc1 [Example 1, 6-(2-fluoro-5-((3-(4-(piperidin-1-ylsulfonyl)phenyl)ureido)methyl)phenyl)-4-(trioxidaneylthio)naphthalene-2-sulfonic acid]",< 0
12.2,,,"O=C(NCc1ccc(F)c(-c2ccc3cc(S(=O)(=O)O)cc(S(=O)(=O)O)c3c2)c1)Nc1ccc(S(=O)(=O)c2ccccc2)cc1 [Example 3, 6-(2-fluoro-5-((3-(4-(phenylsulfonyl)phenyl)ureido)methyl)phenyl)-4-(trioxidaneylthio) naphthalene-2-sulfonic acid]",< 0
7.5,,,COc1ccc(CNC(=O)Nc2ccc(S(=O)(=O)N3CCCCC3)cc2)cc1-c1ccc2cc(S(=O)(=O)O)cc(S(=O)(=O)O)c2c1 [Example 7],< 0
